Results: patent US10227357B2, “Compounds and methods for kinase modulation, and indications therefor” (Plexxikon Inc., priority 2012, dated 2019)

Experiments:
c-kit kinase = target: T1, c-kit kinase (Homo sapiens, UniProt P10721); assay: c-Kit biochemical assay, AlphaScreen, 10 μM ATP; conditions: c-kit biochemical inhibitory activity; read-out: Biochemical activity (IC50 μM) Kit
T1 construct: The c-kit (or kinase domain thereof) is an active kinase in AlphaScreen; poly-Histidine tag (in-house protein only) (cleaved yes); host or cells: E. coli BL21(DE3)RIL, co-expressed with PTP1B
Method in brief: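 His-tagged c-Kit expressed in E. coli with co-expressed PTP1B (dephosphorylated), tag removed; 0.1 ng per reaction with biotinylated-peptide substrate in 50 mM HEPES pH 7.2, 5 mM MgCl2, 5 mM MnCl2, 5% DMSO, 10 μM ATP, 1 h at room temperature. Phosphorylation detected by AlphaScreen (streptavidin donor, PY20 acceptor beads); IC50 from 8-point 1:3 dilution series.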

c-kit mutant D816V = target: T2, c-kit mutant D816V (Homo sapiens, UniProt P10721, D816V/DEL694-753); assay: c-Kit mutant D816V biochemical assay, AlphaScreen; conditions: c-kit D816V biochemical inhibitory activity; read-out: Biochemical activity (IC50 μM) Kit D816V
T2 construct: residues 551-934, kinase insertion domain residues 694-753 deleted; 6x-histidine (N); made in house; host or cells: E. coli Arctic Express (DE3) RIL (Stratagene)
Method in brief: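 Purified His-tagged c-Kit D816V (E. coli-expressed) assayed in 25 mM HEPES pH 7.2 with Mg/Mn, 5% DMSO and 10 μM ATP, 30 min at room temperature, 8-point 1:3 dilutions. Phosphorylation detected by AlphaScreen with streptavidin donor and PY20 acceptor beads; IC50 from signal versus concentration.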

T1 sequence (P10721 26-976): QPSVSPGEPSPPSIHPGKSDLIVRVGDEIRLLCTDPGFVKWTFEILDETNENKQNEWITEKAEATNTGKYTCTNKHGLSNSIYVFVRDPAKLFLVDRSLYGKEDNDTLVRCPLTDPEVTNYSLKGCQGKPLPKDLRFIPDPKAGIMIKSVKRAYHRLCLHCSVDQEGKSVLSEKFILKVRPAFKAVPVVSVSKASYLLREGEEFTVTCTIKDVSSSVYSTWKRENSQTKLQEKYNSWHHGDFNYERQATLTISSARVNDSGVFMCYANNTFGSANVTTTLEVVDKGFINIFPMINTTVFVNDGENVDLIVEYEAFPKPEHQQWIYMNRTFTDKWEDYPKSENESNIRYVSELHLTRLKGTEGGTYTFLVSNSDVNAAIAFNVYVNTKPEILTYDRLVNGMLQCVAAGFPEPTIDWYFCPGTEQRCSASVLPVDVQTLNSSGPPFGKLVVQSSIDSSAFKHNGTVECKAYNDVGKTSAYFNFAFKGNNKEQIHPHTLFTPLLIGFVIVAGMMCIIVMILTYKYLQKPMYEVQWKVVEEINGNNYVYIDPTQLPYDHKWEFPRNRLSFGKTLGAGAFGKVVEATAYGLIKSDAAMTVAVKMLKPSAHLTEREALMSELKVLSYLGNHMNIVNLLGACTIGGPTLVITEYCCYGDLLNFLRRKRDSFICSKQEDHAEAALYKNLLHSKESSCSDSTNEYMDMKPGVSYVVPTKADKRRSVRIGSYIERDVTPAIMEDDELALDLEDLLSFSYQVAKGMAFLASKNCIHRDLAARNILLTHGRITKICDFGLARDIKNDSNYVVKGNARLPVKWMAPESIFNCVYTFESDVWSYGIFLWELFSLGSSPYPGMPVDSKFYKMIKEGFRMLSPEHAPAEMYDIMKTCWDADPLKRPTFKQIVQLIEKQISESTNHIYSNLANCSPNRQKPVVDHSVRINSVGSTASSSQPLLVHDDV
T2 sequence (P10721 with tags, fused parts or gaps DEL694-753/D816V): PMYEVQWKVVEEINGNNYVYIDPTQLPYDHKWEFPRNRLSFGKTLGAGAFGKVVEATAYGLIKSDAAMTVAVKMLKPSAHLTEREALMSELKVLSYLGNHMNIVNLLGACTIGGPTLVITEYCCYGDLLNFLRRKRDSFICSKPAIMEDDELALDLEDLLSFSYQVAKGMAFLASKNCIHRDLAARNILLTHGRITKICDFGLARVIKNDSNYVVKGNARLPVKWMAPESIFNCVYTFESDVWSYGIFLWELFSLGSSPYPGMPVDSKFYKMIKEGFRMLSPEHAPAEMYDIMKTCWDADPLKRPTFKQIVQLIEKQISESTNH

`COCCOc1cc2ncnc(-c3ccc(NS(=O)(=O)c4ccc(Cl)cc4)cc3F)c2cc1OCCOC` [P-0261, N-[4-[6,7-bis(2-methoxyethoxy)quinazolin-4-yl]-3-fluoro-phenyl]-4-chloro-benzenesulfonamide] was tested, and the IC50 (c-kit kinase) was 0.0001 to 1 µM and the IC50 (c-kit mutant D816V) was 0.0001 to 1 µM.
`COCCOc1cc2ncnc(-c3ccc(NS(=O)(=O)c4ccc(OC)cc4)cc3F)c2cc1OCCOC` [P-0262, N-[4-[6,7-bis(2-methoxyethoxy)quinazolin-4-yl]-3-fluoro-phenyl]-4-methoxy-benzenesulfonamide] was tested, and the IC50 (c-kit kinase) was 0.0001 to 1 µM and the IC50 (c-kit mutant D816V) was 0.0001 to 1 µM.
In the case of `COCCOc1cc2ncnc(-c3ccc(NS(=O)(=O)C4CC4)cc3F)c2cc1OCCOC` [P-0263, N-[4-[6,7-bis(2-methoxyethoxy)quinazolin-4-yl]-3-fluoro-phenyl]cyclopropanesulfonamide], the IC50 (c-kit kinase) is reported as 10 to 200 µM and the IC50 (c-kit mutant D816V) is reported as 0.0001 to 1 µM.
`COCCOc1cc2ncnc(-c3ccc(NS(C)(=O)=O)cc3F)c2cc1OCCOC` [P-0264, N-[4-[6,7-bis(2-methoxyethoxy)quinazolin-4-yl]-3-fluoro-phenyl]methanesulfonamide] was tested, and the IC50 (c-kit kinase) was 10 to 200 µM and the IC50 (c-kit mutant D816V) was 0.0001 to 1 µM.
Work on `O=S(=O)(Nc1ccc(-c2ncnc3cc4c(cc23)OCCO4)c(F)c1)C1CC1` [P-0265, N-[4-(7,8-dihydro-[1,4]dioxino[2,3-g]quinazolin-4-yl)-3-fluoro-phenyl]cyclopropanesulfonamide] yielded an IC50 (c-kit kinase) of 10 to 200 µM and an IC50 (c-kit mutant D816V) of 10 to 200 µM.
With `CS(=O)(=O)Nc1ccc(-c2ncnc3cc4c(cc23)OCCO4)c(F)c1` [P-0266, N-[4-(7,8-dihydro-[1,4]dioxino[2,3-g]quinazolin-4-yl)-3-fluoro-phenyl]methanesulfonamide] the IC50 (c-kit kinase) was 1 to 10 µM and the IC50 (c-kit mutant D816V) was 1 to 10 µM.
`COc1cc2ncnc(-c3ccc(N)cc3F)c2cc1OC` [P-0267, 4-(6,7-dimethoxyquinazolin-4-yl)-3-fluoro-aniline] was tested, and the IC50 (c-kit kinase) was 10 to 200 µM and the IC50 (c-kit mutant D816V) was 0.0001 to 1 µM.
Compound `COc1cc2ncnc(-c3ccc(NS(=O)(=O)c4ccc(Cl)cc4)cc3F)c2cc1OC` [P-0268, 4-chloro-N-[4-(6,7-dimethoxyquinazolin-4-yl)-3-fluoro-phenyl]benzenesulfonamide] has an IC50 (c-kit kinase) of 1 to 10 µM and an IC50 (c-kit mutant D816V) of 0.0001 to 1 µM.
With `CCCS(=O)(=O)Nc1ccc(-c2ncnc3cc(OC)c(OC)cc23)c(F)c1` [P-0269, N-[4-(6,7-dimethoxyquinazolin-4-yl)-3-fluoro-phenyl]propane-1-sulfonamide] the IC50 (c-kit kinase) was 10 to 200 µM and the IC50 (c-kit mutant D816V) was 0.0001 to 1 µM.
`COc1cc2ncnc(-c3ccc(NS(=O)(=O)C4CC4)cc3F)c2cc1OC` [P-0270, N-[4-(6,7-dimethoxyquinazolin-4-yl)-3-fluoro-phenyl]cyclopropanesulfonamide] showed an IC50 (c-kit kinase) of 10 to 200 µM and an IC50 (c-kit mutant D816V) of 0.0001 to 1 µM.
Compound `COc1cc2ncnc(-c3ccc(NS(C)(=O)=O)cc3F)c2cc1OC` [P-0271, N-[4-(6,7-dimethoxyquinazolin-4-yl)-3-fluoro-phenyl]methanesulfonamide] has an IC50 (c-kit kinase) of 1 to 10 µM and an IC50 (c-kit mutant D816V) of 0.0001 to 1 µM.
In the case of `Cc1ccc(-c2cc3c(C4=CCC(NS(=O)(=O)c5ccc(OC(F)(F)F)cc5)CC4)ncnc3[nH]2)cn1` (stereo not drawn) [P-0281, N-[4-[6-(6-methyl-3-pyridyl)-7H-pyrrolo[2,3-d]pyrimidin-4-yl]cyclohex-3-en-1-yl]-4-(trifluoromethoxy)benzenesulfonamide], the IC50 (c-kit kinase) is reported as 10 to 200 µM and the IC50 (c-kit mutant D816V) is reported as 0.0001 to 1 µM.
For `CCCc1ccc(S(=O)(=O)Nc2ccc(-c3ncnc4[nH]c(C)cc34)cc2)cc1` [P-0282, N-[4-(6-methyl-7H-pyrrolo[2,3-d]pyrimidin-4-yl)phenyl]-4-propyl-benzenesulfonamide], the IC50 (c-kit kinase) was 1 to 10 µM and the IC50 (c-kit mutant D816V) was 0.0001 to 1 µM.
Compound `Cc1cccc(S(=O)(=O)Nc2ccc(-c3ncnc4[nH]c(C)cc34)cc2)c1` [P-0283, 3-methyl-N-[4-(6-methyl-7H-pyrrolo[2,3-d]pyrimidin-4-yl)phenyl]benzenesulfonamide] has an IC50 (c-kit kinase) of 10 to 200 µM and an IC50 (c-kit mutant D816V) of 1 to 10 µM.
`Cc1cc2c(-c3ccc(NS(=O)(=O)c4cccc(OC(F)(F)F)c4)cc3)ncnc2[nH]1` [P-0284, N-[4-(6-methyl-7H-pyrrolo[2,3-d]pyrimidin-4-yl)phenyl]-3-(trifluoromethoxy)benzenesulfonamide] showed an IC50 (c-kit kinase) of 10 to 200 µM and an IC50 (c-kit mutant D816V) of 1 to 10 µM.
